Drawing on ChEMBL document CHEMBL5647694, “Novel orally bioavailable EZH1/2 dual inhibitors with greater antitumor efficacy than an EZH2 selective inhibitor” (Cancer Sci, 2017), this text covers inhibition for 2 molecules.

SMILES strings stand for the structures.

By inhibition is commonly meant the relative decrease from the control value, in per cent.

Experiment [1] concerns the target Tyrosine-protein kinase receptor UFO (Homo sapiens) (UniProt P30530). Put plainly: Inhibition of N-terminal GST-fused human AXL cytoplasmic domain (464 to 885 residues) expressed in baculovirus-infected Sf21 cells using CSKtide as substrate at 1 uM in presence of ATP by Mobility shift assay.
The target in experiment [2] is Serine/threonine-protein kinase DCLK2 (Homo sapiens) (UniProt Q8N568). Put plainly: Inhibition of N-terminal GST-fused truncated human DCAMKL2 (1 to 691 residues) expressed in baculovirus expression system using GS peptide as substrate at 1 uM in presence of ATP by Mobility shift assay.
Experiment [3] addresses CDK2/Cyclin A2 (Homo sapiens) (UniProt P24941+P20248). Put plainly: Inhibition of N-terminal GST-tagged full length human CDK2 (1 to 298 residues)/GST-tagged human CyclinA2 (1 to 432 residues) expressed in baculovirus-infected Sf21 cells using Modified Histone H1 as substrate at 1 uM in presence of ATP by Mobility shift assay.
Experiment [4] has as its target Homeodomain-interacting protein kinase 1 (Homo sapiens) (UniProt Q86Z02). Put plainly: Inhibition of N-terminal GST-fused human HIPK1 catalytic domain (158 to 555 residues) expressed in baculovirus expression system using DYRKtide-F as substrate at 1 uM in presence of ATP by Mobility shift assay.
The target of experiment [5] is TRAF2 and NCK-interacting protein kinase (Homo sapiens) (UniProt Q9UKE5). Put plainly: Inhibition of N-terminal GST-fused human TNIK catalytic domain (1 to 314 residues) expressed in baculovirus expression system using Moesin-derived peptide as substrate at 1 uM in presence of ATP by Mobility shift assay.
The target of experiment [6] is Mitogen-activated protein kinase 3 (Homo sapiens) (UniProt P27361). Put plainly: Inhibition of N-terminal GST-fused full length human ERK1 (1 to 379 residues) expressed in Escherichia coli expression system using Modified Erktide as substrate at 1 uM in presence of ATP by Mobility shift assay.
The target of experiment [7] is Epithelial discoidin domain-containing receptor 1 (Homo sapiens) (UniProt Q08345). Put plainly: Inhibition of N-terminal GST-fused human DDR1 cytoplasmic domain (444 to 876 residues) expressed in baculovirus-infected Sf21 cells using IRS1 as substrate at 1 uM in presence of ATP by Mobility shift assay.
Experiment [8] has as its target Cyclin-dependent kinase 1/cyclin B1 (Homo sapiens) (UniProt P06493+P14635). As to the kind of experiment: Inhibition of N-terminal GST-fused full length human CDC2 (1 to 297 residues)/N-terminal GST fused human CyclinB1 (1 to 433 residues) expressed in baculovirus-infected Sf21 cells using Modified Histone H1 as substrate at 1 uM in presence of ATP by Mobility shift assay.

Experiment [9] concerns the target Aurora kinase C (Homo sapiens) (UniProt Q9UQB9). Put plainly: Inhibition of N-terminal GST-fused full length human AurC (1 to 275 residues) expressed in baculovirus-infected Sf21 cells using Kemptide as substrate at 1 uM in presence of ATP by Mobility shift assay.
In experiment [10] the target is PAS domain-containing serine/threonine-protein kinase (Homo sapiens) (UniProt Q96RG2). As to the kind of experiment: Inhibition of N-terminal GST-fused human PASK catalytic domain (949 to 1323 residues) expressed in baculovirus expressing system using GS peptide as substrate at 1 uM in presence of ATP by Mobility shift assay.
Experiment [11] deals with Ephrin type-A receptor 1 (Homo sapiens) (UniProt P21709). As to the kind of experiment: Inhibition of N-terminal GST-fused human EPHA1 cytoplasmic domain (586 to 976 residues) expressed in baculovirus-infected Sf21 cells using Blk/Lyntide as substrate at 1 uM in presence of ATP by Mobility shift assay.
Experiment [12] concerns the target Serine/threonine-protein kinase WNK3 (Homo sapiens) (UniProt Q9BYP7). Put plainly: Inhibition of N-terminal GST-fused human WNK3 catalytic domain (1 to 434 residues) expressed in baculovirus expression system using SPAKtide as substrate at 1 uM in presence of ATP by Mobility shift assay.
Experiment [13] concerns the target [Pyruvate dehydrogenase (acetyl-transferring)] kinase isozyme 2, mitochondrial (Homo sapiens) (UniProt Q15119). As to the kind of experiment: Inhibition of N-terminal GST-fused full length human PDHK2 (1 to 407 residues) expressed in baculovirus expression system using PDHKtide as substrate at 1 uM in presence of ATP by Mobility shift assay.
Experiment [14] deals with Aurora kinase B (Homo sapiens) (UniProt Q96GD4). As to the kind of experiment: Inhibition of human AurB at 1 uM by Mobility shift assay.
Experiment [15] addresses Serine/threonine-protein kinase D1 (Homo sapiens) (UniProt Q15139). As to the kind of experiment: Inhibition of N-terminal GST-fused full length human PKD1 (1 to 912 residues) expressed in baculovirus expression system using GS peptide as substrate at 1 uM in presence of ATP by Mobility shift assay.
For experiment [16], the target named is Casein kinase I isoform gamma-3 (Homo sapiens) (UniProt Q9Y6M4). As to the kind of experiment: Inhibition of N-terminal GST-fused full length human CK1gamma3 (1 to 447 residues) expressed in baculovirus expression system using CKtide as substrate at 1 uM in presence of ATP by Mobility shift assay.
Experiment [17] has as its target Serine/threonine-protein kinase PAK 4 (Homo sapiens) (UniProt O96013). Put plainly: Inhibition of N-terminal GST-fused full length human PAK4 (1 to 591 residues) expressed in baculovirus expression system using SGKtide as substrate at 1 uM in presence of ATP by Mobility shift assay.
For experiment [18], the target named is Sphingosine kinase 2 (Homo sapiens) (UniProt Q9NRA0). Put plainly: Inhibition of N-terminal GST-fused full length human SPHK2 (1 to 618 residues) expressed in baculovirus expression system using Sphingosine as substrate at 1 uM in presence of ATP by Mobility shift assay.
Experiment [19] has as its target Calcium/calmodulin-dependent protein kinase type II subunit beta (Homo sapiens) (UniProt Q13554). Put plainly: Inhibition of N-terminal GST-tagged full length human CAMK2b (1 to 503 residues) expressed in baculovirus-infected Sf21 cells using GS peptide as substrate at 1 uM in presence of ATP by Mobility shift assay.
For experiment [20], the target named is PI3-kinase p110-alpha/p85-alpha (Homo sapiens) (UniProt P27986+P42336). Put plainly: Inhibition of N-terminal DYKDDDDK tagged, biotinylated full length human PIK3CA (1 to 1068 residues)/human PIK3R1 (1 to 724 residues) expressed in baculovirus expression system using PI(4,5)P2 as substrate at 1 uM in presence of ATP by ADP-Glo assay. For orientation: ADP-Glo turns the ADP formed in a reaction into a luminescent signal.

Experiment [21] deals with Protein kinase C alpha type (Homo sapiens) (UniProt P17252). Put plainly: Inhibition of N-terminal GST-fused human full length PKC-alpha (1 to 672 residues ) expressed in baculovirus expression system using PKC peptide as substrate at 1 uM in presence of ATP by Mobility shift assay.
Experiment [22] addresses Serine/threonine-protein kinase BRSK1 (Homo sapiens) (UniProt Q8TDC3). Put plainly: Inhibition of N-terminal GST-tagged full length human BRSK1 (1 to 778 residues) expressed in baculovirus-infected Sf21 cells using CHKtide as substrate at 1 uM in presence of ATP by Mobility shift assay.

For `Cc1cc(C)c(CNC(=O)c2cc(Br)c3c(c2C)O[C@@](C)([C@H]2CC[C@H](N(C)C)CC2)O3)c(=O)[nH]1`, the inhibition in experiment [1] is -0.5%; in [2] it was -2.7%; in [3], -0.3%; in experiment [4], -4.7%; in [5], 1.1%; in [6], -2.6%. The inhibition in experiment [7] is -3.3%; in experiment [8], 1.8%; in experiment [9], -9.2%; in experiment [10], -3.7%; in experiment [11], -2.8%; in experiment [12], -9.2%. The inhibition is 1.6% in experiment [13]; -3.7% in experiment [14]; -6.9% in [15]; 1.1% in [16]; -1.8% in experiment [17]; 12.7% in experiment [18]. Besides, the inhibition in experiment [19] is -0.3%; in experiment [20] it was 9.8%; in experiment [21], 4.7%; in experiment [22], -1.9%.
Take `Cc1cc(C)c(CNC(=O)c2cc(Cl)c3c(c2C)O[C@@](C)([C@H]2CC[C@H](N(C)C)CC2)O3)c(=O)[nH]1` [VALEMETOSTAT]: the inhibition in experiment [1] is -3.5%; in [2], -5.4%; in experiment [3], 3%; in experiment [4], 0.5%; in experiment [5], 0.3%; in experiment [6], -4.1%. Besides, the inhibition in experiment [7] is -3.7%; in experiment [8] it was 8.7%; in experiment [9] it was 21.9%; in [10], -5.8%; in [11] it was -1.6%; in experiment [12], -3.9%. Moreover, the inhibition in [13] was 1.4%; in [14] it was -1%; in experiment [15] it was -6.9%; in experiment [16] it was 0.5%; in experiment [17], 0.1%; in experiment [18], 8%. In addition, the inhibition in [19] was -1.4%; in experiment [20], 0.6%; in experiment [21], 24%; in experiment [22], -3.6%.
